In experiment [1] the test system is acute HIV infection with HeLa P4-2 cells. Description: Single cycle infectivity assay with HeLa P4-2 cells (vertical assay). The conditions noted are these: Human immunodeficiency virus 1, HeLaP4-2. The experiment is classed as cell-based. How it is done: An assay for measuring the inhibition of acute HIV infection with HeLa P4-2 cells in a single cycle infectivity assay (alternatively referred to herein as the “vertical assay”) was conducted in accordance with Joyce, J. G. et al., J. Biol. Chem. 2002, 277: 45811, Hazuda, D. J. et al., Science, 2000, 287, 646, and Kimpton, J. et al, J. Virol. 1992, 66: 2232.

The subject of experiment [2] is acute HIV infection of T-lymphoid cells. Description: Inhibition of acute HIV infection of T-lymphoid cells (spread assay). The experiment is classed as cell-based. The conditions noted are these: Human immunodeficiency virus 1. On the procedure: An assay for the inhibition of acute HIV infection of T-lymphoid cells (alternatively referred to herein as the “spread assay”) was conducted in accordance with Vacca, J. P. et al., Proc. Natl. Acad. Sci. USA 1994, 91: 4096.

Experiment [3] has as its target T1, recombinant integrase (HIV integrase) (Human immunodeficiency virus type 1 group M subtype B, UniProt P04585).
T1 construct: Strand Transfer Catalyzed by Recombinant Integrase
The experiment can be described thus: HIV integrase assay: strand transfer catalyzed by recombinant integrase. The experiment is classed as biochemical. The conditions noted are these: assay per WO 02/30930, read-out: IC50, inhibition of strand transfer activity of integrase. On the procedure:
Assays for the strand transfer activity of integrase were conducted in accordance with WO 02/30930 for recombinant integrase.
Further description on conducting the assay using preassembled complexes is found in Wolfe, A. L. et al., J. Virol. 1996, 70: 1424-1432, Hazuda et al., J. Virol. 1997, 71: 7005-7011; Hazuda et al., Drug Design and Discovery 1997, 15: 17-24; and Hazuda et al., Science 2000, 287: 646-650.

The term IC50 denotes the concentration needed to halve the response being measured. Usually IC95 stands for the concentration needed for an effect of 95%. Read a high IC95 as weaker potency. In turn, `CN(Cc1ccc2nccnc2c1)C(=O)c1nn2c(c1O)C(=O)N(C)CC2` [Example 17, 3-Hydroxy-5-methyl-4-oxo-2-{[quinoxalin-6-ylmethyl(methyl)amino]carbonyl}-4,5,6,7-tetrahydropyrazolo[1,5-a]pyrazine] showed an IC50 in experiment [1] below 40 µM. The same compound displayed an IC95 in experiment [2] above 10 µM.
In turn, `COC(=O)c1nn2c(c1O)C(=O)N(Cc1ccc(F)cc1)CC2` [Example 1, Methyl 5-(4-fluorobenzyl)-3-hydroxy-4-oxo-4,5,6,7-tetrahydropyrazolo[1,5-a]pyrazine-2-carboxylate] came in with an IC50 in experiment [1] above 100 µM. The IC95 in experiment [2] was above 10 µM.
With `CN1CCn2nc(C(=O)N3CCc4ccccc4C3)c(O)c2C1=O` [Example 14, 3-Hydroxy-5-methyl-4-oxo-2-[(1,2,3,4-tetrahydro-isoquinolin-2-yl)carbonyl]-4,5,6,7-tetrahydropyrazolo[1,5-a]pyrazine], in experiment [3], the IC50 is above 10 µM. The compound further gave an IC95 in experiment [2] above 10 µM.
In experiment [1], `CN1CCn2nc(C(=O)N(CCO)Cc3ccccc3)c(O)c2C1=O` [Example 18, 2-[Benzyl(2-hydroxyethyl)aminocarbonyl]-3-hydroxy-5-methyl-4-oxo-4,5,6,7-tetrahydropyrazolo[1,5-a]pyrazine] showed an IC50 above 100 µM. In experiment [2], this compound came in with an IC95 above 10 µM.
As to `CNC(=O)c1nn2c(c1O)C(=O)N(Cc1ccc(F)cc1)C(C)C2` (centres unmarked) [Example 6, 5-(4-Fluorobenzyl)-3-hydroxy-N-methyl-6-methyl-4-oxo-4,5,6,7-tetrahydropyrazolo[1,5-a]pyrazine-2-carboxamide], the IC50 in experiment [1] is below 40 µM. The same compound returned an IC95 in experiment [2] above 10 µM.
In the case of `O=C(NC1CCNCC1)c1nn2c(c1O)C(=O)N(Cc1ccc(F)cc1)CC2` [Example 25, 5-(4-Fluorobenzyl)-3-hydroxy-4-oxo-N-(4-piperidinyl)-4,5,6,7-tetrahydropyrazolo[1,5-a]pyrazine-2-carboxamide], the IC50 in experiment [1] is below 40 µM. In experiment [2], this compound displayed an IC95 above 10 µM.
For the compound `CN1CCn2nc(C(=O)N3CCCC3c3ccccc3)c(O)c2C1=O` (centres unmarked) [Example 16, 3-Hydroxy-5-methyl-4-oxo-2-[(2-phenylpyrrolidin-1-yl)carbonyl]-4,5,6,7-tetrahydropyrazolo[1,5-a]pyrazine], the concentration for half-maximal inhibition (IC50) in experiment [3] was above 10 µM. In experiment [2], this compound had an IC95 above 10 µM.
On to `CN1CC(c2cccc(Br)c2)n2nc(C(=O)NCc3ccc(F)cc3)c(O)c2C1=O` (centres unmarked) [Example 43, 7-(3-Bromophenyl)-N-(4-fluorobenzyl)-3-hydroxy-5-methyl-4-oxo-4,5,6,7-tetrahydropyrazolo[1,5-a]pyrazine-2-carboxamide], for which, in experiment [2], the IC95 was at most 10 µM.
In experiment [2], `COC(=O)c1nn2c(c1O)C(=O)N(Cc1ccc(F)cc1)CCC2` [Example 30, Methyl 5-(4-Fluorobenzyl)-3-hydroxy-4-oxo-5,6,7,8-tetrahydro-4H-pyrazolo[1,5-a][1,4]diazepine-2-carboxylate] came in with an IC95 of at most 10 µM.
Same read-out and setting: next, `CN1C[C@@H](c2ccccc2)n2nc(C(=O)NCc3ccc(F)cc3C(N)=O)c(O)c2C1=O` [Example 41, (7R)-N-[2-(Aminocarbonyl)-4-fluorobenzyl]-3-hydroxy-5-methyl-4-oxo-7-phenyl-4,5,6,7-tetrahydropyrazolo[1,5-a]pyrazine-2-carboxamide]: at most 10 µM; `CNC(=O)c1cc(F)ccc1CNC(=O)c1nn2c(c1O)C(=O)N(C)CC2C(C)C` (centres unmarked) [Example 49, N-{4-Fluoro-2-[(methylamino)carbonyl]benzyl}-3-hydroxy-7-isopropyl-5-methyl-4-oxo-4,5,6,7-tetrahydropyrazolo[1,5-a]pyrazine-2-carboxamide]: at most 10 µM; `Cn1c(=O)c2c(O)c(C(=O)NCc3ccc(F)cc3)nn2c2ccccc21` [Example 32, N-(4-fluorobenzyl)-3-hydroxy-5-methyl-4-oxo-4,5-dihydropyrazolo[1,5-a]quinoxaline-2-carboxamide]: at most 10 µM.
The same measure, in the same setting: next, `CN1CC(c2cccc(C#N)c2)n2nc(C(=O)NCc3ccc(F)cc3)c(O)c2C1=O` (centres unmarked) [Example 44, 7-(3-Cyanophenyl)-N-(4-fluorobenzyl)-3-hydroxy-5-methyl-4-oxo-4,5,6,7-tetrahydropyrazolo[5,5-a]pyrazine-2-carboxamide]: at most 10 µM.
Still for that read-out and setting: next, `CN1CC(c2ccccc2)n2nc(C(=O)NCc3ccc(F)cc3)c(O)c2C1=O` (centres unmarked) [Example 2, N-(4-Fluorobenzyl)-3-hydroxy-5-methyl-4-oxo-7-phenyl-4,5,6,7-tetrahydropyrazolo[1,5-a]pyrazine-2-carboxamide]: at most 10 µM.
Regarding `O=C(c1nn2c(c1O)C(=O)N(Cc1ccc(F)cc1)CC2)N1CCOCC1` [Example 28, 5-(4-Fluorobenzyl)-3-hydroxy-2-(morpholin-4-ylcarbonyl)-4-oxo-4,5,6,7-tetrahydropyrazolo[1,5-a]pyrazine], the IC50 in experiment [1] was below 40 µM. This compound displayed an IC95 in experiment [2] above 10 µM.
With `CN1CC(c2ccncc2)n2nc(C(=O)NCc3ccc(F)cc3)c(O)c2C1=O` (centres unmarked) [Example 45, N-(4-Fluorobenzyl)-3-hydroxy-5-methyl-4-oxo-7-pyridin-4-yl-4,5,6,7-tetrahydropyrazolo[1,5-a]pyrazine-2-carboxamide], in experiment [2], the concentration for an effect of 95% (IC95) is at most 10 µM.
In turn, `CNC(=O)c1cc(F)ccc1CNC(=O)c1nn2c(c1O)C(=O)N(C)C[C@H]2c1ccccc1` [Example 34, (7R)-N-{4-Fluoro-2-[(methylamino)carbonyl]benzyl}-3-hydroxy-5-methyl-4-oxo-7-phenyl-4,5,6,7-tetrahydropyrazolo[1,5-a]pyrazine-2-carboxamide] registered an IC95 in experiment [2] of at most 10 µM.
With `CN(C)CCN(Cc1ccccc1)C(=O)c1nn2c(c1O)C(=O)N(C)CC2` [Example 19, 2-{Benzyl[2-(dimethylamino)ethyl]aminocarbonyl}-3-hydroxy-5-methyl-4-oxo-4,5,6,7-tetrahydropyrazolo[1,5-a]pyrazine], the IC50 in experiment [1] is above 100 µM; in experiment [3], above 10 µM. Moreover, the IC95 in experiment [2] was above 10 µM.
Consider `CCNC(=O)c1cc(F)ccc1CNC(=O)c1nn2c(c1O)C(=O)N(C)C[C@@H]2c1ccccc1` [Example 40, (7S)-N-{2-[(Ethylamino)carbonyl]-4-fluorobenzyl}-3-hydroxy-5-methyl-4-oxo-7-phenyl-4,5,6,7-tetrahydropyrazolo[1,5-a]pyrazine-2-carboxamide], for which the IC95 in experiment [2] was at most 10 µM.
As to `CN(Cc1ccc(F)cc1)C(=O)c1nn2c(c1O)C(=O)N(C)CC2` [Example 13, 2-[4-fluorobenzyl(methyl)aminocarbonyl]-3-hydroxy-5-methyl-4-oxo-4,5,6,7-tetrahydropyrazolo[1,5-a]pyrazine-2-carboxamide], in experiment [2], the IC95 was at most 10 µM.
On the same count and under the same terms, next, `O=C(NCc1ccc(Cl)c(Cl)c1)c1nn2c(c1O)C(=O)N(CC1CC1)CC2` [Example 21, 5-Cyclopropylmethyl-N-(3,4-dichlorobenzyl)-3-hydroxy-4-oxo-4,5,6,7-tetrahydropyrazolo[1,5-a]pyrazine-2-carboxamide]: at most 10 µM; `Cc1csc(C2CN(C)C(=O)c3c(O)c(C(=O)NCc4ccc(F)cc4)nn32)n1` (centres unmarked) [Example 11, N-(4-Fluorobenzyl)-3-hydroxy-5-methyl-7-(4-methyl-1,3-thiazol-2-yl)-4-oxo-4,5,6,7-tetrahydropyrazolo[1,5-a]pyrazine-2-carboxamide]: at most 10 µM.
`CN1C[C@@H](c2ccccc2)n2nc(C(=O)NCc3ccc(F)cc3C(=O)NC3CC3)c(O)c2C1=O` [Example 35, (7R)-N-{2-[(Cyclopropylamino)carbonyl]-4-fluorobenzyl}-3-hydroxy-5-methyl-4-oxo-7-phenyl-4,5,6,7-tetrahydropyrazolo[1,5-a]pyrazine-2-carboxamide] displayed a 95% effect concentration (IC95) in experiment [2] of at most 10 µM.
In turn, `CNC(=O)c1cc(F)ccc1CNC(=O)c1nn2c(c1O)C(=O)N(C)CC2c1ccccn1` (centres unmarked) [Example 47, N-{4-Fluoro-2-[(methylamino)carbonyl]benzyl}-3-hydroxy-5-methyl-4-oxo-7-pyridin-2-yl-4,5,6,7-tetrahydropyrazolo[1,5-a]pyrazine-2-carboxamide] gave an IC95 in experiment [2] of at most 10 µM.
On the same count and under the same terms, next, `CN1CCn2nc(C(=O)NCc3ccc(F)cc3S(C)(=O)=O)c(O)c2C1=O` [Example 15, N-[4-Fluoro-2-(methylsulfonyl)benzyl]-3-hydroxy-5-methyl-4-oxo-4,5,6,7-tetrahydropyrazolo[1,5-a]pyrazine-2-carboxamide]: at most 10 µM.

Source of the values: patent publication US7476666B2, “HIV integrase inhibitors” (Merck & Co., Inc., priority 2004, dated 2009).
